For one molecule, TET3 protein level results are on record in patent US20260355199A1, “COMPOSITIONS AND METHODS FOR TREATING OR PREVENTING NONALCOHOLIC STEATOHEPATITIS (NASH), ANOREXIA, DEPRESSION, ENDOMETRIOSIS, AND OTHER DISEASES OR DISORDERS” (priority 2022, published 2026).

Entries after “also recorded” stand apart in the source; their conditions may differ.

In assay [1] the test system is TET3. Description: TET3 protein level (immunoblot/immunofluorescence) in GT1-7 cells. Format: cell-based, mouse. As to conditions: 10 μM. Here is the method:
Mouse GT1-7 hypothalamic neuronal cell line (Sigma-Aldrich, SCC116), human SH-SY5Y neuronal blastoma cell line (ATCC, CRL-2266), and embryonic mouse hypothalamus cell line N11 (mHypoE-N11) (Cedarlane, CLU107) were purchased and cultured according to the manufacturers' instructions. For siRNA transfection in a 24-well plate scale, cells were seeded at a density of 2×10^5 cells/well the day before transfection. To prepare siRNA transfection solution for each well of cells, 5 pmol of NT siRNA (non-targeting control siRNA, AM4636, Ambion), Tet3 siRNA (siRNA specifically targeting mouse Tet3, 4390815/s101483, Ambion), or TET3 siRNA (siRNA specifically targeting human TET3, 4392420/s47238, Ambion) (Cao et al., 2019, Oncogene, 38:5356-5366; Xu et al., 2020, Cell Rep., 30:1310-1318) were mixed with 25 μl of OPTI-MEM (Gibco, 31985-070) by gentle pipetting (Cao, T. et al., 2019, Oncogene, 38:5356-5366; Xu, Y. et al., 2020, Cell Reports, 30:1310-1318 e5). In parallel, 1.5 μl of Lipofectamine RNAiMAX (Invitrogen, 13778-150) was mixed with 25 μl of OPTI-MEM by gentle pipetting. […]
For Bobcat339 treatment (FIG. 15A and FIG. 15B), GT1-7 cells grown in 24-well plates at 2×10^5 cells/well were incubated with vehicle or Bobcat339 at a final concentration of 10 μM for 6 h, followed by RNA and protein extractions. […] Protein and RNA were isolated 48 h later and analyzed. […]
A general note: Immunoblotting shows a protein as a band on a membrane.

Assay [2] has as its system TET3. Description: TET3 protein in THP-1 cells. Format: cell-based, human. The following applies: THP-1, 10 μM, 24 h. The procedure:
Bobcat339 Treatment of Cultured Cells Bobcat339 powder (Sigma-Aldrich, SML2611) was freshly dissolved in DMSO at a concentration of 5 mM and filtered through a 0.22 micron. Cells grown at a density of 80-90% were incubated in growth media with vehicle (DMSO) or Bobcat339 at a final concentration of 10 μM for 24 h, followed by RNA and protein extraction.
Cells were homogenized in situ using a pipette tip in 2×SDS-sample buffer with 10% β-mercaptoethanol at RT followed by heating at 100 °C for 5 min with occasional vortexing. The samples were loaded onto a 4-15% gradient SDS gel (Bio-rad, 456-8086) (10 μL/well) and transferred to nitrocellulose membranes, followed by Western blot analysis. The antibodies used were anti-TET3 (diluted at 1:1000, GeneTex, GTX121453 for human; diluted at 1:1000, Active Motif, 61395 for mouse), anti-TET2 (diluted at 1:1000, Proteintech, 21207-1-AP for human/mouse), anti-TGF-β1 (diluted at 1:1000, Abcam, ab215715 for human), anti-Lin28A (diluted at 1:1000, Cell Signaling, 3978S), and HRP-conjugated anti-GAPDH (dilution 1:5000; Proteintech, HRP-60004). The secondary antibody was HRP-linked Anti-rabbit IgG (dilution 1:10,000; Rockland, 611-1322).

For the molecule `Nc1nc(=O)n(-c2cccc(-c3ccccc3)c2)cc1Cl` [Bobcat339, 4-Amino-1-[1,1′-biphenyl]-3-yl-5-chloro-2(1H)-pyrimidinone], the TET3 protein level entry with TET3 [1] (6 h) is reported as “a decrease in the protein level of TET3; also recorded: rapidly decreased the level of TET3 protein; also recorded: decreased TET3 expression at the protein level”; in the assay with TET3 [1] (48 h, without exogenous TET3), “decreased the level of TET3 protein”; in the assay on TET3 [2], “a decrease in TET3 at the protein level”.
